Laboratory results reported in the NIST ThermoML archive (doi:10.1016/j.jct.2015.06.024).

Assay: mn = molality of the nth substance listed, in mol/kg
Conditions: 84.5 kPa, Liquid; for speed of sound: Frequency=3 MHz, Sing-around technique in a fixed-path interferometer; for mass density: Vibrating tube method

CCO [ethanol] + O
Conditions	mass density, 288.15 K [kg/m3]	mass density, 293.15 K [kg/m3]	mass density, 298.15 K [kg/m3]	mass density, 303.15 K [kg/m3]	mass density, 308.15 K [kg/m3]	speed of sound, 288.15 K [m/s]	speed of sound, 293.15 K [m/s]	speed of sound, 298.15 K [m/s]	speed of sound, 303.15 K [m/s]	speed of sound, 308.15 K [m/s]
m1 = 0.02159	998.9	998.003	996.845	995.446	993.829	1467.4	1483.4	1497.5	1509.8	1520.4
m1 = 0.04347	998.707	997.81	996.654	995.257	993.639	1468.2	1484.2	1498.2	1510.5	1521
m1 = 0.06495	998.526	997.632	996.474	995.076	993.46	1469.1	1485	1498.9	1511.1	1521.6
m1 = 0.08646	998.318	997.424	996.265	994.87	993.243	1470	1485.8	1499.7	1511.7	1522.2
m1 = 0.1087	998.132	997.24	996.081	994.683	993.05	1470.8	1486.5	1500.4	1512.4	1522.8
m1 = 0.1306	997.942	997.051	995.892	994.494	992.873	1471.7	1487.3	1501.1	1513	1523.3
m1 = 0.1749	997.562	996.671	995.508	994.111	992.498	1473.4	1488.9	1502.5	1514.2	1524.4
m1 = 0.2188	997.195	996.303	995.144	993.747	992.123	1475	1490.4	1503.8	1515.5	1525.5
